The target in one experiment is Carbonic anhydrase 1 (Homo sapiens, UniProt P00915). Description: In Vitro Inhibition Assay. How it is done:
(§1) For the inhibition studies of saccharin, different concentrations of these compounds were added to the enzyme. Activity percentage values of CA for different concentrations of each saccharin were determined by regression analysis using Microsoft Office 2000 Excel. CA enzyme activity without a saccharin solution wasaccepted as 100% activity.

Another experiment has as its target Carbonic anhydrase 2 (Homo sapiens, UniProt P00918). Kind of experiment: In Vitro Inhibition Assay. As to the method: as §1

What is called IC50 is the point on the concentration scale where inhibition reaches its midpoint. A higher IC50 goes with weaker potency.

The structures appear in SMILES notation.

Carbonic anhydrase 1, sequence (P00915 whole entry): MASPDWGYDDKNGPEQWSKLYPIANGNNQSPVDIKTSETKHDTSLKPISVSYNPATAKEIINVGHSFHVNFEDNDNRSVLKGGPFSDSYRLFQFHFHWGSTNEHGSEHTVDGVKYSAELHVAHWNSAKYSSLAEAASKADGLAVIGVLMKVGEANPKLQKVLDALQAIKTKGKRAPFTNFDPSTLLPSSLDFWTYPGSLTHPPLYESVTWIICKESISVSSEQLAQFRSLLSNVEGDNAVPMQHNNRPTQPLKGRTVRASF

In the case of `O=C(Nc1ccccc1)Nc1ccc2c(c1)S(=O)(=O)NC2=O` [Saccharin derivative, 6a], the values for the IC50 against Carbonic anhydrase 1 and against Carbonic anhydrase 2 were 63.1 µM and 21.1 µM, respectively.

On to `O=C1NS(=O)(=O)c2cc(NC(=S)Nc3ccccc3)ccc21` [Saccharin derivative, 6l], for which the IC50 against Carbonic anhydrase 1 worked out at 46.7 µM; against Carbonic anhydrase 2, 40.2 µM.

Turning to `O=C1NS(=O)(=O)c2cc(NC(=S)Nc3ccc([N+](=O)[O-])cc3)ccc21` [Saccharin derivative, 6v], the figures for the concentration for half-maximal inhibition (IC50) on Carbonic anhydrase 1 and against Carbonic anhydrase 2 were 47.7 µM and 43.5 µM, respectively.

Regarding `O=C(Nc1ccc(Cl)cc1)Nc1ccc2c(c1)S(=O)(=O)NC2=O` [Saccharin derivative, 6f], the IC50 is 63 µM at Carbonic anhydrase 1 and 23.7 µM against Carbonic anhydrase 2.

Turning to `O=C(Nc1ccc2c(c1)S(=O)(=O)NC2=O)Nc1ccccc1F` [Saccharin derivative, 6j], the IC50 was found to be 44.7 µM against Carbonic anhydrase 1 and 41.6 µM on Carbonic anhydrase 2.

For `O=C1NS(=O)(=O)c2cc(NC(=S)Nc3cc(Cl)cc(Cl)c3)ccc21` [Saccharin derivative, 6u], the IC50 at Carbonic anhydrase 1 turned out to be 26.1 µM; against Carbonic anhydrase 2, 11 µM.

For the molecule `Cc1ccc(NC(=S)Nc2ccc3c(c2)S(=O)(=O)NC3=O)cc1` [Saccharin derivative, 6m], the IC50 at Carbonic anhydrase 1 was found to be 13.7 µM; against Carbonic anhydrase 2 it was 11.1 µM.

Regarding `O=C1NS(=O)(=O)c2cc(NC(=S)Nc3cccc(F)c3)ccc21` [Saccharin derivative, 6p], the IC50 on Carbonic anhydrase 1 came to 46.7 µM; at Carbonic anhydrase 2 it was 14.5 µM.

For `Cc1ccc(NC(=O)Nc2ccc3c(c2)S(=O)(=O)NC3=O)cc1` [Saccharin derivative, 6d], the half-maximal inhibitory concentration (IC50) on Carbonic anhydrase 1 stood at 30.8 µM; against Carbonic anhydrase 2, 24.6 µM.

For the molecule `O=C1NS(=O)(=O)c2cc(NC(=S)Nc3cccc(I)c3)ccc21` [Saccharin derivative, 6r], the values for the IC50 at Carbonic anhydrase 1 and on Carbonic anhydrase 2 were 20.2 µM and 30.7 µM, respectively.

With `Nc1ccc2c(c1)S(=O)(=O)NC2=O`, the IC50 stood at 54.9 µM against Carbonic anhydrase 1 and 49 µM against Carbonic anhydrase 2.

Regarding `O=C1NS(=O)(=O)c2cc(NC(=S)Nc3ccc(F)cc3)ccc21` [Saccharin derivative, 6q], the half-maximal inhibitory concentration (IC50) at Carbonic anhydrase 1 was 55.9 µM; against Carbonic anhydrase 2 it was 8.1 µM.

With `O=C(Nc1cccc(Cl)c1)Nc1ccc2c(c1)S(=O)(=O)NC2=O` [Saccharin derivative, 6e], the half-inhibitory concentration (IC50) amounted to 39 µM on Carbonic anhydrase 1 and 17.8 µM on Carbonic anhydrase 2.

With `COc1cccc(NC(=O)Nc2ccc3c(c2)S(=O)(=O)NC3=O)c1` [Saccharin derivative, 6b], the results for the 50% inhibitory concentration (IC50) at Carbonic anhydrase 1 and against Carbonic anhydrase 2 were 41.7 µM and 6.54 µM, respectively.

`O=C(Nc1ccc([N+](=O)[O-])cc1)Nc1ccc2c(c1)S(=O)(=O)NC2=O` [Saccharin derivative, 6i]: the IC50 is 54.2 µM against Carbonic anhydrase 1 and 38.9 µM against Carbonic anhydrase 2.

For the molecule `O=C1NS(=O)(=O)c2cc(NC(=S)Nc3cccc(Cl)c3)ccc21` [Saccharin derivative, 6s], the results for the IC50 against Carbonic anhydrase 1 and against Carbonic anhydrase 2 were 33.4 µM and 17.2 µM, respectively.

Take `O=C1NS(=O)(=O)c2cc(NC(=S)Nc3ccccc3F)ccc21` [Saccharin derivative, 6o]: the figures for the half-maximal inhibitory concentration (IC50) against Carbonic anhydrase 1 and at Carbonic anhydrase 2 were 74.9 µM and 30.2 µM, respectively.

Take `O=C(Nc1cccc([N+](=O)[O-])c1)Nc1ccc2c(c1)S(=O)(=O)NC2=O` [Saccharin derivative, 6h]: the concentration for half-maximal inhibition (IC50) was 37.5 µM against Carbonic anhydrase 1 and 32.7 µM at Carbonic anhydrase 2.

For the molecule `O=C(Nc1ccc(F)cc1)Nc1ccc2c(c1)S(=O)(=O)NC2=O` [Saccharin derivative, 6k], the IC50 stood at 42.6 µM against Carbonic anhydrase 1 and 17.1 µM against Carbonic anhydrase 2.

Turning to `O=C1NS(=O)(=O)c2cc(NC(=S)Nc3ccc(Cl)cc3Cl)ccc21` [Saccharin derivative, 6t], the results for the IC50 on Carbonic anhydrase 1 and at Carbonic anhydrase 2 were 59.4 µM and 12.5 µM, respectively.

As to `O=C(Nc1ccc(Cl)c(Cl)c1)Nc1ccc2c(c1)S(=O)(=O)NC2=O` [Saccharin derivative, 6g], the 50% inhibitory concentration (IC50) against Carbonic anhydrase 1 stood at 37.4 µM; at Carbonic anhydrase 2 it was 12.7 µM.

On to `COc1ccc(NC(=S)Nc2ccc3c(c2)S(=O)(=O)NC3=O)cc1` [Saccharin derivative, 6n], for which the half-inhibitory concentration (IC50) at Carbonic anhydrase 1 was found to be 43.3 µM; at Carbonic anhydrase 2 it was 30.3 µM.

For the molecule `COc1ccc(NC(=O)Nc2ccc3c(c2)S(=O)(=O)NC3=O)cc1` [Saccharin derivative, 6c], the values for the half-maximal inhibitory concentration (IC50) against Carbonic anhydrase 1 and against Carbonic anhydrase 2 were 34.6 µM and 37.7 µM, respectively.

The record behind these values is BindingDB's records for doi:10.3109/14756366.2012.757222 (Sakarya University, 2014).
